Biological target: LSD1 (Homo sapiens, UniProt O60341)
Assay: LSD1 enzymatic assay
Format: biochemical
Conditions: for inhibition at 1 µM: read-out: Inhibition rate (%) at 1 μmol/L against LSD1

## C#CCSc1nc(Nc2ccc(C)cc2)c(C#N)c(-c2ccccc2)n1 [Compound 7f]
  IC50: > 64000 nM

## N#Cc1c(Nc2ccc(Cl)cc2)nc(SCc2cn(Cc3ccccc3Cl)nn2)nc1-c1ccccc1 [Compound 10b]
  IC50: 628 ± 27 nM

## N#Cc1c(Nc2cccc(Cl)c2)nc(SCc2cn(Cc3ccccc3Cl)nn2)nc1-c1ccccc1 [Compound 10c]
  IC50: 6310 ± 719 nM

## Cc1ccc(Nc2nc(SCc3cn(CC(=O)NC(=O)Nc4ccccn4)nn3)nc(-c3ccc(Cl)cc3)c2C#N)cc1 [Compound 14c]
  IC50: 531 ± 2 nM
  fold stronger LSD1 inhibitory activity than compound 14a: about 3.5 fold
  inhibition at 1 µM: 91.4%

## Cc1ccc(Nc2nc(SCc3cn(CC(=O)NC(=O)Nc4ccccn4)nn3)nc(-c3ccc(Br)cc3)c2C#N)cc1 [Compound 14d]
  IC50: 3820 ± 582 nM
  inhibition at 1 µM: 46.3%

## Cc1ccc(-c2nc(SCc3cn(CC(=O)NC(=O)Nc4ccccn4)nn3)nc(Nc3cccc(Cl)c3)c2C#N)cc1 [Compound 14p]
  IC50: 232 ± 2 nM

## Cc1ccc(Nc2nc(SCC(=O)NC(=O)Nc3ccccn3)nc(-c3ccc(C(C)C)cc3)c2C#N)cc1 [Compound 16b]
  IC50: > 125000 nM

From publication PMC7563019 (Acta Pharmaceutica Sinica. B, 2020)
